From patent publication US20240262815A1, “HETEROARYL DERIVATIVE, METHOD FOR PREPARING SAME, AND PHARMACEUTICAL COMPOSITION COMPRISING SAME AS ACTIVE INGREDIENT” (VORONOI INC., priority 2021, published 2024)

System: SK-BR-3 cancer cells
Assay: Inhibitory activity against proliferation of SK-BR-3 cancer cells (CellTiter-Glo)
Format: cell-based
Conditions: Homo sapiens, SK-BR-3, 120 h, ErbB2-overexpressing SK-BR-3 cells, 120 hours after treatment
In short: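 Cells seeded 48 h before dosing (SK-BR-3 in McCOY'S 5A + 10% FBS; BT-474 in RPMI-1640 + 20% FBS), then exposed 120 h to 12 concentrations, 0.2 nM-5 μM final. Viability by CellTiter-Glo luminescence; GI50 from growth rate vs control, triplicate runs.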

Question: With C=CC(=O)Nc1cc(Nc2cc(N3OCCC3c3cccc(-c4cccs4)c3)ncn2)c(OC)cc1N1CCC(N2CCN(C3CC3)CC2)CC1 (stereo not drawn) [Example 182, N-(2-(4-(4-cyclo-propylpiperazin-1-yl)piperidin-1-yl)-4-methoxy-5-((6-(3-(3-(thiophen-2-yl)phenyl)isoxazol-idin-2-yl)pyrim-idin-4-yl)amino)-phenyl)acrylamide] as the compound, how does the GI50 read?
Answer: < 0.05 µM

Question: With C=CC(=O)Nc1cc(Nc2cc(N3OCC[C@@H]3c3cc(F)cc(-c4cccc(F)c4)c3)ncn2)c(OC)cc1N1CCC(N2CCN(C3CC3)[C@H](C)C2)CC1 [Example 206] as the compound, how does the GI50 read?
Answer: 0.5 to 5 µM

Question: For C=CC(=O)Nc1cc(Nc2cc(N3OCC[C@@H]3c3cc(F)cc(-c4cccc(F)c4)c3)ncn2)c(OC)cc1N1CCN(C)CC1 [Example compound 130, (R)-N-(5-((6-(3-(3′,5-difluoro-[1,1′-biphenyl]-3-yl)isoxazolidin-2-yl)pyrimidin-4-yl)amino)-4-methoxy-2-(4-methylpiperazin-1-yl)phenyl)acrylamide], which GI50 is on record?
Answer: < 0.05 µM

Question: How did the GI50 turn out when C=CC(=O)Nc1cc(Nc2cc(N3OCCC3c3cccc(-c4cccn5ccnc45)c3)ncn2)c(OC)cc1N1CCN(C)CC1 (stereo not drawn) [Example 203, N-(5-((6-(3-(3-(imidazo[1,2-a]-pyridin-8-yl)phen-yl)isoxazolidin-2-yl)pyrimidin-4-yl)amino)-4-meth-oxy-2-(4-methyl-piperazin-1-yl)-phenyl)acrylamide] was run?
Answer: < 0.05 µM

Question: Which GI50 does the source give for C=CC(=O)Nc1cc(Nc2cc(N3OCC[C@@H]3c3ccc(F)c(Oc4cccc(F)c4)c3)ncn2)c(OC)cc1N1CCC(N2CCN(C3CC3)CC2)CC1 [Example compound 152, (R)-N-(2-(4-(4-cyclopropylpiperazin-1-yl)piperidin-1-yl)-5-((6-(3-(4-fluoro-3-(3-fluorophenoxy)phenyl)isoxazolidin-2-yl)pyrimidin-4-yl)amino)-4-methoxyphenyl)acrylamide] here?
Answer: < 0.05 µM

Question: For C=CC(=O)Nc1cc(Nc2cc(N3OCCC3c3cccc(-c4cc(F)cc(F)c4)c3)ncn2)c(OC)cc1N1CCN(C)CC1 (stereo not drawn) [Example 267, N-(5-((6-(3-(3′,5′-difluoro-[1,1′-biphenyl]-3-yl)-isoxazolidin-2-yl)-pyrimidin-4-yl)-amino)-4-methoxy-2-(4-methylpiper-azin-1-yl)phenyl)-acrylamide], which GI50 is on record?
Answer: < 0.05 µM

Question: How did the GI50 turn out when C=CC(=O)Nc1cc(Nc2cc(N3OCC[C@@H]3c3ccc(F)c(Oc4cccc(F)c4)c3)ncn2)c(OC)cc1N1CCN(C)CC1 [Example compound 153, (R)-N-(5-((6-(3-(4-fluoro-3-(3-fluorophenoxy)phenyl)isoxazolidin-2-yl)pyrimidin-4-yl)amino)-4-methoxy-2-(4-methylpiperazin-1-yl)phenyl)acrylamide] was run?
Answer: 0.05 to 0.5 µM

Question: With C=CC(=O)Nc1cc(Nc2cc(N3OCC[C@@H]3c3cccc(-c4cccc(F)c4)c3)ncn2)c(OC)cc1N1CC2CN(C)CC2C1 (stereo partly drawn) [Example 319, N-(5-((6-((R)-3-(3′-fluoro-[1,1′-biphenyl]-3-yl)-isoxazolidin-2-yl)-pyrimidin-4-yl)-amino)-4-methoxy-2-(5-methylhexa-hydropyrrolo[3,4-c]pyrrol-2(1H)-yl)-phenyl)acrylamide] as the compound, how does the GI50 read?
Answer: < 0.05 µM

Question: How did the GI50 turn out when C=CC(=O)Nc1cc(Nc2cc(N3OCC[C@@H]3c3ccc(C)c(OCc4cccc(F)c4)c3)ncn2)c(OC)cc1F [Example 258, (R)-N-(2-fluoro-5-((6-(3-(3-((3-fluorobenzyl)oxy)-4-methylphenyl)-isoxazolidin-2-yl)-pyrimidin-4-yl)-amino)-4-methoxy-phenyl)acrylamide] was run?
Answer: 0.5 to 5 µM

Question: For C=CC(=O)Nc1cc(Nc2cc(N3OCCC3c3cccc(-c4cnn(C)c4)c3)ncn2)c(OC)cc1N1CCC(N2CCN(C3CC3)CC2)CC1 (stereo not drawn) [Example 234, N-(2-(4-(4-cyclo-propylpiperazin-1-yl)piperidin-1-yl)-4-methoxy-5-((6-(3-(3-(1-methyl-1H-pyrazol-4-yl)-phenyl)isoxazol-idin-2-yl)pyrim-idin-4-yl)amino)-phenyl)acrylamide], which GI50 is on record?
Answer: < 0.05 µM

Question: Which GI50 does the source give for C=CC(=O)Nc1cc(Nc2cc(N3OCC[C@@H]3c3cc(F)cc(Oc4ccn(C)n4)c3)ncn2)c(OC)cc1N(C)CCN(C)C [Example 218, (R)-N-(2-((2-(dimethylamino)-ethyl)(methyl)-amino)-5-((6-(3-(3-fluoro-5-((1-methyl-1H-pyr-azol-3-yl)oxy)-phenyl)isoxazol-idin-2-yl)pyrim-idin-4-yl)amino)-4-methoxyphen-yl)acrylamide] here?
Answer: < 0.05 µM

Question: How did the GI50 turn out when C=CC(=O)Nc1cc(Nc2cc(N3OCC[C@@H]3c3cc(F)cc(-c4cccc(F)c4)c3)ncn2)c(OC)cc1N1CCC(N2CCN(C3CC3)CC2)CC1 [Example compound 131, (R)-N-(2-(4-(4-cyclopropylpiperazin-1-yl)piperidin-1-yl)-5-((6-(3-(3′,5-difluoro-[1,1′-biphenyl]-3-yl)isoxazolidin-2-yl)pyrimidin-4-yl)amino)-4-methoxyphenyl)acrylamide] was run?
Answer: < 0.05 µM

Question: For C=CC(=O)Nc1cc(Nc2cc(N3OCC[C@@H]3c3ccc(F)c(Oc4cccc(C(F)(F)F)c4)c3)ncn2)c(OC)cc1N1CCN(C)CC1 [Example 259, (R)-N-(5-((6-(3-(4-fluoro-3-(3-(trifluoromethyl)-phenoxy)phenyl)-isoxazolidin-2-yl)-pyrimidin-4-yl)-amino)-4-meth-oxy-2-(4-methyl-piperazin-1-yl)-phenyl)acrylamide], which GI50 is on record?
Answer: 0.05 to 0.5 µM

Question: How did the GI50 turn out when C=CC(=O)Nc1cc(Nc2cc(N3OCC[C@@H]3c3ccc(C)c(OCc4cccc(F)c4)c3)ncn2)c(OC)cc1N(C)CCN(C)C [Example 257, (R)-N-(2-((2-(dimethylamino)-ethyl)(methyl)-amino)-5-((6-(3-(3-((3-fluorobenz-yl)oxy)-4-methyl-phenyl)isoxazol-idin-2-yl)pyrim-idin-4-yl)amino)-4-methoxyphen-yl)acrylamide] was run?
Answer: < 0.05 µM

Question: Which GI50 does the source give for C=CC(=O)Nc1cc(Nc2cc(N3OCCC3c3cccc(-c4cc(F)cc(F)c4)c3)ncn2)c(OC)cc1N1CCC(N2CCN(C3CC3)CC2)CC1 (stereo not drawn) [Example 249, N-(2-(4-(4-cyclo-propylpiperazin-1-yl)piperidin-1-yl)-5-((6-(3-(3′,5′-difluoro-[1,1′-biphenyl]-3-yl)-isoxazolidin-2-yl)-pyrimidin-4-yl)-amino)-4-methoxy-phenyl)acrylamide] here?
Answer: 0.05 to 0.5 µM

Question: How did the GI50 turn out when C=CC(=O)Nc1cc(Nc2cc(N3OCC[C@@H]3c3cc(F)cc(OCc4ccccn4)c3)ncn2)c(OC)cc1N1CCN(C)CC1 [Example 195, (R)-N-(5-((6-(3-(3-fluoro-5-(pyr-idin-2-ylmethoxy)-phenyl)isoxazol-idin-2-yl)pyrim-idin-4-yl)amino)-4-methoxy-2-(4-methylpiperazin-1-yl)phenyl)-acrylamide] was run?
Answer: < 0.05 µM

Question: Which GI50 does the source give for C=CC(=O)Nc1cc(Nc2cc(N3OCC[C@@H]3c3cc(F)cc(Oc4ccn(C)n4)c3)ncn2)c(OC)cc1N1CCN(C)CC1 [Example 217, (R)-N-(5-((6-(3-(3-fluoro-5-((1-methyl-1H-pyr-azol-3-yl)oxy)-phenyl)isoxazol-idin-2-yl)pyrim-idin-4-yl)amino)-4-methoxy-2-(4-methylpiperazin-1-yl)phenyl)-acrylamide] here?
Answer: 0.05 to 0.5 µM

Question: Which GI50 does the source give for C=CC(=O)Nc1cc(Nc2cc(N3OCCC3c3cccc(-c4cnn(C)c4)c3)ncn2)c(OC)cc1N1CCN(C)CC1 (stereo not drawn) [Example 232, N-(4-methoxy-5-((6-(3-(3-(1-meth-yl-1H-pyrazol-4-yl)phenyl)isoxazol-idin-2-yl)pyrim-idin-4-yl)amino)-2-(4-methylpiper-azin-1-yl)phenyl)-acrylamide] here?
Answer: < 0.05 µM
